Assay results: patent US12319648B2, “Fluorinated phenylacetic acid derivatives in a weed control method” (SYNGENTA CROP PROTECTION AG, priority 2019, dated 2025)

Tests used:
Assay type in all cases: in vivo
[1] = system: Ipomoea hederacea (IPOHE); assay: Post-emergence herbicidal glasshouse test; details: for percentage damage caused to the plant, five-point scale, IPOHE: post-emergence, 250 g/ha, 13 days after application; for % phytotoxicity IPOHE: comparative post-emergence test
Procedure, shortened: (§1)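 Plants were sprayed one day after sowing (pre-emergence) or after 8 days' growth (post-emergence) at 250 g/ha unless otherwise stated, in acetone/water (50:50) with 0.5% Tween 20. Glasshouse conditions were 24/16 °C, 14 h light, 65% humidity. Damage was scored after 13 days on a five-point scale (5=81-100%; 1=0-20%).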

Lolium perenne (LOLPE) [2] = assay: Post-emergence herbicidal glasshouse test; details: for percentage damage caused to the plant, five-point scale, LOLPE: post-emergence, 250 g/ha, 13 days after application; for % phytotoxicity LOLPE: comparative post-emergence test
Procedure, shortened: as §1

Setaria faberi (SETFA) [3] = assay: Post-emergence herbicidal glasshouse test; details: for percentage damage caused to the plant, five-point scale, SETFA: post-emergence, 250 g/ha, 13 days after application; for % phytotoxicity SETFA: comparative post-emergence test
Procedure, shortened: as §1

[4] = system: Echinochloa crus-galli (ECHCG); assay: Post-emergence herbicidal glasshouse test; details: for percentage damage caused to the plant, five-point scale, ECHCG: post-emergence, 250 g/ha, 13 days after application; for % phytotoxicity ECHCG: comparative post-emergence test
Procedure, shortened: as §1

Solanum nigrum (SOLNI) [5] = assay: Post-emergence herbicidal glasshouse test; details: for percentage damage caused to the plant, five-point scale, SOLNI: post-emergence, 250 g/ha, 13 days after application; for % phytotoxicity SOLNI: comparative post-emergence test
Procedure, shortened: as §1

[6] = system: Amaranthus retoflexus (AMARE); assay: Post-emergence herbicidal glasshouse test; details: for percentage damage caused to the plant, five-point scale, AMARE: post-emergence, 250 g/ha, 13 days after application; for % phytotoxicity AMARE: comparative post-emergence test
Procedure, shortened: as §1

[7] = system: Ipomoea hederacea (IPOHE); assay: Pre-emergence herbicidal glasshouse test; details: for percentage damage caused to the plant, five-point scale, IPOHE: pre-emergence, 250 g/ha, 13 days after application; for % phytotoxicity IPOHE: comparative pre-emergence test
Procedure, shortened: as §1

Lolium perenne (LOLPE) [8] = assay: Pre-emergence herbicidal glasshouse test; details: for percentage damage caused to the plant, five-point scale, LOLPE: pre-emergence, 250 g/ha, 13 days after application; for % phytotoxicity LOLPE: comparative pre-emergence test
Procedure, shortened: as §1

Setaria faberi (SETFA) [9] = assay: Pre-emergence herbicidal glasshouse test; details: for percentage damage caused to the plant, five-point scale, SETFA: pre-emergence, 250 g/ha, 13 days after application; for % phytotoxicity SETFA: comparative pre-emergence test
Procedure, shortened: as §1

[10] = system: Echinochloa crus-galli (ECHCG); assay: Pre-emergence herbicidal glasshouse test; details: for percentage damage caused to the plant, five-point scale, ECHCG: pre-emergence, 250 g/ha, 13 days after application; for % phytotoxicity ECHCG: comparative pre-emergence test
Procedure, shortened: as §1

Solanum nigrum (SOLNI) [11] = assay: Pre-emergence herbicidal glasshouse test; details: for percentage damage caused to the plant, five-point scale, SOLNI: pre-emergence, 250 g/ha, 13 days after application; for % phytotoxicity SOLNI: comparative pre-emergence test
Procedure, shortened: as §1

[12] = system: Amaranthus retoflexus (AMARE); assay: Pre-emergence herbicidal glasshouse test; details: for percentage damage caused to the plant, five-point scale, AMARE: pre-emergence, 250 g/ha, 13 days after application; for % phytotoxicity AMARE: comparative pre-emergence test
Procedure, shortened: as §1

Compound: O=C(O)C(F)(F)c1cccc(F)c1F [Compound 1.031]
- percentage damage caused to the plant, five-point scale, IPOHE [1]: 3 (3=41-60%)
- percentage damage caused to the plant, five-point scale, LOLPE (Lolium perenne (LOLPE) [2]): 1 (1=0-20%)
- percentage damage caused to the plant, five-point scale, SETFA (Setaria faberi (SETFA) [3]): 1 (1=0-20%)
- percentage damage caused to the plant, five-point scale, ECHCG [4]: 1 (1=0-20%)
- percentage damage caused to the plant, five-point scale, SOLNI (Solanum nigrum (SOLNI) [5]): 3 (3=41-60%)
- percentage damage caused to the plant, five-point scale, AMARE [6]: 3 (3=41-60%)
- percentage damage caused to the plant, five-point scale, IPOHE [7]: 3 (3=41-60%)
- percentage damage caused to the plant, five-point scale, LOLPE (Lolium perenne (LOLPE) [8]): 1 (1=0-20%)
- percentage damage caused to the plant, five-point scale, SETFA (Setaria faberi (SETFA) [9]): 1 (1=0-20%)
- percentage damage caused to the plant, five-point scale, ECHCG [10]: 1 (1=0-20%)
- percentage damage caused to the plant, five-point scale, SOLNI (Solanum nigrum (SOLNI) [11]): 1 (1=0-20%)
- percentage damage caused to the plant, five-point scale, AMARE [12]: 1 (1=0-20%)

Compound: O=C(O)C(F)(F)c1cccc(F)c1Br [Compound 1.032]
- percentage damage caused to the plant, five-point scale, IPOHE [1]: 4 (4=61-80%)
- percentage damage caused to the plant, five-point scale, LOLPE (Lolium perenne (LOLPE) [2]): 1 (1=0-20%)
- percentage damage caused to the plant, five-point scale, SETFA (Setaria faberi (SETFA) [3]): 1 (1=0-20%)
- percentage damage caused to the plant, five-point scale, ECHCG [4]: 1 (1=0-20%)
- percentage damage caused to the plant, five-point scale, SOLNI (Solanum nigrum (SOLNI) [5]): 4 (4=61-80%)
- percentage damage caused to the plant, five-point scale, AMARE [6]: 4 (4=61-80%)
- percentage damage caused to the plant, five-point scale, IPOHE [7]: 4 (4=61-80%)
- percentage damage caused to the plant, five-point scale, LOLPE (Lolium perenne (LOLPE) [8]): 1 (1=0-20%)
- percentage damage caused to the plant, five-point scale, SETFA (Setaria faberi (SETFA) [9]): 1 (1=0-20%)
- percentage damage caused to the plant, five-point scale, ECHCG [10]: 1 (1=0-20%)
- percentage damage caused to the plant, five-point scale, SOLNI (Solanum nigrum (SOLNI) [11]): 4 (4=61-80%)
- percentage damage caused to the plant, five-point scale, AMARE [12]: 4 (4=61-80%)

Compound: O=C(O)C(F)(F)c1cccc(Br)c1F [Compound 1.033]
- percentage damage caused to the plant, five-point scale, IPOHE [1]: 4 (4=61-80%)
- percentage damage caused to the plant, five-point scale, LOLPE (Lolium perenne (LOLPE) [2]): 1 (1=0-20%)
- percentage damage caused to the plant, five-point scale, SETFA (Setaria faberi (SETFA) [3]): 4 (4=61-80%)
- percentage damage caused to the plant, five-point scale, ECHCG [4]: 4 (4=61-80%)
- percentage damage caused to the plant, five-point scale, SOLNI (Solanum nigrum (SOLNI) [5]): 5 (5=81-100%)
- percentage damage caused to the plant, five-point scale, AMARE [6]: 5 (5=81-100%)
- percentage damage caused to the plant, five-point scale, IPOHE [7]: 4 (4=61-80%)
- percentage damage caused to the plant, five-point scale, LOLPE (Lolium perenne (LOLPE) [8]): 1 (1=0-20%)
- percentage damage caused to the plant, five-point scale, SETFA (Setaria faberi (SETFA) [9]): 4 (4=61-80%)
- percentage damage caused to the plant, five-point scale, ECHCG [10]: 4 (4=61-80%)
- percentage damage caused to the plant, five-point scale, SOLNI (Solanum nigrum (SOLNI) [11]): 5 (5=81-100%)
- percentage damage caused to the plant, five-point scale, AMARE [12]: 5 (5=81-100%)

Compound: O=C(O)C(F)(F)c1cccc(F)c1Cl [Compound 1.036]
- percentage damage caused to the plant, five-point scale, IPOHE [1]: 4 (4=61-80%)
- percentage damage caused to the plant, five-point scale, LOLPE (Lolium perenne (LOLPE) [2]): 1 (1=0-20%)
- percentage damage caused to the plant, five-point scale, SETFA (Setaria faberi (SETFA) [3]): 1 (1=0-20%)
- percentage damage caused to the plant, five-point scale, ECHCG [4]: 1 (1=0-20%)
- percentage damage caused to the plant, five-point scale, SOLNI (Solanum nigrum (SOLNI) [5]): 4 (4=61-80%)
- percentage damage caused to the plant, five-point scale, AMARE [6]: 4 (4=61-80%)
- percentage damage caused to the plant, five-point scale, IPOHE [7]: 4 (4=61-80%)
- percentage damage caused to the plant, five-point scale, LOLPE (Lolium perenne (LOLPE) [8]): 1 (1=0-20%)
- percentage damage caused to the plant, five-point scale, SETFA (Setaria faberi (SETFA) [9]): 1 (1=0-20%)
- percentage damage caused to the plant, five-point scale, ECHCG [10]: 1 (1=0-20%)
- percentage damage caused to the plant, five-point scale, SOLNI (Solanum nigrum (SOLNI) [11]): 4 (4=61-80%)
- percentage damage caused to the plant, five-point scale, AMARE [12]: 4 (4=61-80%)

Compound: O=C(O)C(F)(F)c1cccc(Br)c1Cl [Compound 1.037]
- percentage damage caused to the plant, five-point scale, IPOHE [1]: 4 (4=61-80%)
- percentage damage caused to the plant, five-point scale, LOLPE (Lolium perenne (LOLPE) [2]): 3 (3=41-60%)
- percentage damage caused to the plant, five-point scale, SETFA (Setaria faberi (SETFA) [3]): 4 (4=61-80%)
- percentage damage caused to the plant, five-point scale, ECHCG [4]: 4 (4=61-80%)
- percentage damage caused to the plant, five-point scale, SOLNI (Solanum nigrum (SOLNI) [5]): 5 (5=81-100%)
- percentage damage caused to the plant, five-point scale, AMARE [6]: 5 (5=81-100%)
- percentage damage caused to the plant, five-point scale, IPOHE [7]: 4 (4=61-80%)
- percentage damage caused to the plant, five-point scale, LOLPE (Lolium perenne (LOLPE) [8]): 3 (3=41-60%)
- percentage damage caused to the plant, five-point scale, SETFA (Setaria faberi (SETFA) [9]): 4 (4=61-80%)
- percentage damage caused to the plant, five-point scale, ECHCG [10]: 4 (4=61-80%)
- percentage damage caused to the plant, five-point scale, SOLNI (Solanum nigrum (SOLNI) [11]): 5 (5=81-100%)
- percentage damage caused to the plant, five-point scale, AMARE [12]: 5 (5=81-100%)

Compound: O=C(O)C(Cl)(Cl)c1cccc(Cl)c1Cl [Compound C1, reference compound]
- % phytotoxicity IPOHE ([1]; 500 g/ha): 70%
- % phytotoxicity IPOHE ([1]; 1000 g/ha): 80%
- % phytotoxicity LOLPE (Lolium perenne (LOLPE) [2]; 500 g/ha): 0%
- % phytotoxicity LOLPE (Lolium perenne (LOLPE) [2]; 1000 g/ha): 20%
- % phytotoxicity SETFA (Setaria faberi (SETFA) [3]; 500 g/ha): 0%
- % phytotoxicity SETFA (Setaria faberi (SETFA) [3]; 1000 g/ha): 10%
- % phytotoxicity ECHCG ([4]; 500 g/ha): 0%
- % phytotoxicity ECHCG ([4]; 1000 g/ha): 10%
- % phytotoxicity SOLNI (Solanum nigrum (SOLNI) [5]; 500 g/ha): 60%
- % phytotoxicity SOLNI (Solanum nigrum (SOLNI) [5]; 1000 g/ha): 70%
- % phytotoxicity AMARE ([6]; 500 g/ha): 80%
- % phytotoxicity AMARE ([6]; 1000 g/ha): 80%
- % phytotoxicity IPOHE ([7]; 500 g/ha): 30%
- % phytotoxicity IPOHE ([7]; 1000 g/ha): 60%
- % phytotoxicity LOLPE (Lolium perenne (LOLPE) [8]; 500 g/ha): 0%
- % phytotoxicity LOLPE (Lolium perenne (LOLPE) [8]; 1000 g/ha): 0%
- % phytotoxicity SETFA (Setaria faberi (SETFA) [9]; 500 g/ha): 0%
- % phytotoxicity SETFA (Setaria faberi (SETFA) [9]; 1000 g/ha): 0%
- % phytotoxicity ECHCG ([10]; 500 g/ha): 0%
- % phytotoxicity ECHCG ([10]; 1000 g/ha): 0%
- % phytotoxicity SOLNI (Solanum nigrum (SOLNI) [11]; 500 g/ha): 60%
- % phytotoxicity SOLNI (Solanum nigrum (SOLNI) [11]; 1000 g/ha): 70%
- % phytotoxicity AMARE ([12]; 500 g/ha): 80%
- % phytotoxicity AMARE ([12]; 1000 g/ha): 80%
